Here are results for one compound from patent publication US20120029038A1, “ANIMAL ECTOPARASITE-CONTROLLING AGENT” (SUMITOMO CHEMICAL COMPANY, LIMITED, priority 2010, published 2012).

Common to all, as to format: in vivo
For experiment [1], the system named is cat fleas (Ctenocephalides felis). Nature of the experiment: Oral administration against cat-infested cat fleas. As to conditions: oral with cat food. How it is done:
The previous day before oral administration, 50 test fleas (cat flea adults) were deposited on a cat. Before the oral administration, infested fleas were counted.
Each of the present hydrazide compounds (5) and (8) was mixed with a cat food, and orally administered to a cat in a dose amount of 5 or 20 mg per 1 kg of the cat's body weight. This is referred to as a test group. On the other hand, the cat food alone was fed to a placebo group.
Two (2) days after the administration, the number of living fleas, which were infesting the cats, was examined. When the examination was completed, all infested fleas were removed from the cats.
Forty two (42) days later, 50 test fleas were re-deposited on each cat. Two (2) days after the re-deposit, the number of living fleas, which were infesting the cats, was examined. When the examination was completed, all infested fleas were removed from the cats. The infestation rate and control rate were calculated by the following formulae: […]
(i) Method of calculating infestation rate and control rate at the initial stage (2 days) after the administration:
Infestation rate(%) at X days after administration=(number of living fleas at X days/number of living fleas before administration)×100
Control rate(%) at X days after administration (infestation rate of test group before administration−infestation rate of test group at X days)/infestation rate of test group before administration×100
(ii) Method of calculating infestation rate and control rate at 44 days after the administration:
Infestation rate(%) at X days after administration=(number of living fleas at X days/number of fleas deposited)×100
Control rate(%) at X days after administration (infestation rate of placebo group at X days−infestation rate of test group at X days)/infestation rate of placebo group at X days×100
(§1) In addition, if an infestation rate of a test group is higher than a placebo group, then the control rate is deemed to be 0%.

Experiment [2] concerns ticks (Haemaphysalis longicornis). In words: Dropping application against dog-infested ticks. Particulars: dog (beagle), 20 mg/kg. Here is the method: The previous day before dropping application, 100 test ticks (Haemaphysalis longicornis, young ticks) were deposited on a dog (beagle). Before the dropping application, infested ticks were counted.
Each (1.5 g) of the present hydrazide compounds (5) and (8) was dissolved in diethylene glycol monoethyl ether (6.0 g) to prepare a test solution. Said test solution was directly dropped on the skin of the neck and back of the dog while pushing aside fur thereon at a rate of 0.1 ml per kg of the dog's body weight (dose amount: 20 mg/kg). This is referred to as a test group. On the other hand, diethylene glycol monoethyl ether alone was applied dropwise to a placebo group.
Two (2) days after the application, the number of living ticks, which were infesting the dogs, was examined. When the examination was completed, all infested ticks were removed from the dogs.
Fourteen (14) days and 28 days later, 100 test ticks were re-deposited on each dog. Two (2) days after the re-deposit, the number of living ticks, which were infesting the dogs, was examined. When the examination was completed, all infested ticks were removed from the dogs. The infestation rate and control rate were calculated by the following formulae: […]
(§2) (i) Method of calculating infestation rate and control rate at the initial stage (2 days) after the application:
Infestation rate(%) at X days after application=(number of living ticks at X days/number of living ticks before application)×100
(§3) Control rate(%) at X days after application=(infestation rate of test group before application−infestation rate of test group at X days)/infestation rate of test group before application×100
(§4) (ii) Method of calculating infestation rate and control rate at 16 days and 30 days after the application:
Infestation rate(%) at X days after application=(number of living ticks at X days/number of ticks deposited)×100
(§5) Control rate(%) at X days after the application (infestation rate of placebo group at X days−infestation rate of test group at X days)/infestation rate of placebo group at X days×100
as §1

Experiment [3] shares this test system. In words: Oral administration against dog-infested ticks. Particulars: oral gelatin capsules, 20 mg/kg. Here is the method:
Each of the present hydrazide compounds (5) and (8) and Comparative compound (52) was filled into gelatin capsules, and forcibly and orally administered to a dog in a dose amount of 20 mg per 1 kg of the dog's body weight. This is referred to as a test group. On the other hand, gelatin capsules alone were orally administered to a placebo group.
Forty two (42) days later, 100 test ticks were deposited on each dog. Two (2) days after the deposit, the number of living ticks, which were infesting the dogs, was examined. When the examination was completed, all infested ticks were removed from the dogs. The infestation rate and control rate were calculated by the following formulae: […]
Method of calculating infestation rate and control rate at 44 days after the administration:
Infestation rate(%) at X days after administration=(number of living ticks at X days/number of ticks deposited)×100
Control rate(%) at X days after administration (infestation rate of placebo group at X days−infestation rate of test group at X days)/infestation rate of placebo group at X days[…]
as §1

For experiment [4], the system named is cat fleas (Ctenocephalides felis). Nature of the experiment: Pesticidal activity on cat fleas in filter paper test. Particulars: 48 h. How it is done: Each (11.3 mg) of the present hydrazide compounds (5) and (8) was dissolved in acetone (5 mL), and this acetone solution ([…]) was uniformly applied onto one side of a filter paper (TOYO No. 2; diameter 3.8 cm; the surface area of the filter paper was 11.3 cm^2, and thus the amount of the present hydrazide compound applied was 400 mg/m^2). After drying, said filter paper was placed on the inside of the lid of a 100 mL vial container. Into the vial container, 20 cat flea adults were released and the lid was closed. The vial container was inverted to force the cat fleas to contact the filter paper. Two (2) days later, the number of dead fleas was examined and the mortality was calculated by the following formula:
(§6) Mortality(%)=100×(number of dead cat fleas/number of cat fleas tested)

Experiment [5] shares this test system. Nature of the experiment: Dropping application against cat-infested cat fleas. How it is done:
The previous day before dropping application, 50 test fleas (cat flea adults) were deposited on a cat. Before the dropping application, infested fleas were counted.
Each (0.375 g or 1.5 g) of the present hydrazide compounds (5) and (8) and Comparative compound (52) was dissolved in diethylene glycol monoethyl ether (6.0 g) to prepare a test solution. Said test solution was directly dropped on the skin of the neck and back of the cat while pushing aside fur thereon on at a rate of 0.1 ml per 1 kg of the cat's body weight (dose amount: 5 or 20 mg/kg). This is referred to as a test group. On the other hand, diethylene glycol monoethyl ether alone was applied dropwise to a placebo group.
Two (2) days after the application, the number of living fleas, which were infesting the cats, was examined. When the examination was completed, all infested fleas were removed from the cats.
Fourteen (14) days and 28 days later, 50 test fleas were re-deposited on each cat. Two (2) days after the re-deposit, the number of living fleas, which were infesting the cats, was examined. When the examination was completed, all infested fleas were removed from the cats. The infestation rate and control rate were calculated by the following formulae: […]
as §2
Infestation rate(%) at X days after application=(number of living fleas at X days/number of living fleas before application)×100
as §3, §4
Infestation rate(%) at X days after application−(number of living fleas at X days/number of fleas deposited)×100
as §5, §1

The test system is the same in experiment [6]. Nature of the experiment: Dropping application against mouse-infested cat fleas. Particulars: 0.5% w/v solution 200 μL dropwise along dorsal line, 2 days later. How it is done:
The present hydrazide compound (8) (25 mg) was dissolved in propylene carbonate (5 mL) to prepare a 0.5% w/v solution. Said solution (200 μL) was applied dropwise along the dorsal line of a mouse with a pipette. To a control group, propylene carbonate (200 μL) alone was applied. Each application was repeated 3 times per group.
After the dropping application, 20 cat fleas were deposited on each mouse. Two (2) days later, the number of dead cat fleas was examined and the mortality was calculated by the following formula:
as §6

Turning to `CN(NC(=O)CCC(F)(F)F)c1cc(C2=NOC(c3cc(Cl)cc(Cl)c3)(C(F)(F)F)C2)ccc1Cl` (stereo not shown) [Compound (8), N′-methyl-N′-{2-chloro-5-[5-(3,5-dichlorophenyl)-5-trifluoromethyl-4,5-dihydroisoxazol-3-yl]phenyl}-4,4,4-trifluorobutyrohydrazide], in experiment [1] (5 mg/kg), the “Flea control rates (%) at 2 days after the administration” value is 100% and the “Flea control rates (%) at 44 days after the administration” value is given as 90%. Besides, in experiment [1] (20 mg/kg), the “Flea control rates (%) at 2 days after the administration” value was found to be 100% and the “Flea control rates (%) at 44 days after the administration” value stood at 100%. Moreover, the “Tick control rates (%) at 2 days after the application” value in experiment [2] (2 days) worked out at 31%. The “Tick control rates (%) at 16 days after the application” value in experiment [2] (16 days) amounted to 100%. In addition, the “Tick control rates (%) at 30 days after the application” value in experiment [2] (30 days) is recorded as 100%. Moreover, the “Tick control rates (%) at 44 days after the administration” value in experiment [3] turned out to be 93%. Further, in experiment [4], the mortality (commonly the percentage killed) at 400 mg/m2 is not below 90%. Moreover, in experiment [5] (5 mg/kg), the “Flea control rates (%) at 2 days after the application” value was 100%, the “Flea control rates (%) at 16 days after the application” value came to 100% and the “Flea control rates (%) at 30 days after the application” value was 97%. Moreover, in experiment [5] (20 mg/kg), the “Flea control rates (%) at 2 days after the application” value was found to be 100%, the “Flea control rates (%) at 16 days after the application” value is on record as 100% and the “Flea control rates (%) at 30 days after the application” value is on record as 100%. Besides, the Mortality in experiment [6] is given as not below 70%.
